# According to US6716819B2, “Use of xylitol to reduce ionic strength and activate endogenous antimicrobials for prevention and treatment of infections” (University of Iowa Research Foundation, priority 2000, dated 2004):
# Assays:
# [1] = incorporated in chewing gum; cited from earlier work
# non-CF epithelia = experiment: ASL Cl- concentration and volume (isotope method); format: cell-based, human
# Procedure: FIGS. 3(A-B). The effect of apical xylitol on non-CF and CF ASL Cl^− concentration and volume. Five μl of isosmotic xylitol or saline solution were applied to the apical surface. Twenty-four hours later, ASL Cl^− concentration (A) and volume (B) were determined. Asterisk indicates a difference between the saline and the xylitol solutions, p<0.05. N=15 to 18 from 3 CF and 3 non-CF specimens.
# Airway epithelial cells were isolated from tracheal and bronchial tissue. […] All epithelia were evaluated with scanning electron microscopy for the development of a ciliated apical surface.
# The ASL Cl^− concentration was measured as previously described (Zabner, J., J. J. Smith, P. H. Karp, J. H. Widdicombe, and M. J. Welsh. 1998. Loss of CFTR chloride channels alters salt absorption by cystic fibrosis airway epithelia in vitro. Mol. Cell. 2:397-403). […] The ratio of ^36Cl to ^3H2O was determined by liquid scintillation. […] From these measurements, it was determined the ^3H2O activity per μl of water and the cpm of ^36Cl per mole of Cl^− in the basolateral medium. ASL volume was calculated from the ASL ^3H2O collected divided by the ratio of ^3H2O activity per μl of basolateral medium. Chloride content was calculated from the ASL ^36Cl collected divided by the ratio of ^36Cl per mole of Cl^− in the basolateral medium ASL Cl^− concentration was calculated from the Cl^− content divided by the volume of ASL. […]
# S. aureus = experiment: Growth in carbon-starved M9 media (O.D.); format: cell-based; conditions: M9 media supplemented at 100 mM
# Procedure: FIGS. 5(A-G). Effect of xylitol on growth of different airway pathogens. A, B and C. Growth of P. aeruginosa (A), S. aureus, (B), and coagulase-negative Staphylococcus (C) were measured as O. D. M9 media alone is indicated by open triangle. Xylitol (closed circle), or succinate, mannitol, or sucrose (open circles), were added to M9 media at 100 mM as indicated. D. Nasal swabs were collected and cultured for 3 days in Lauria-Bertani media (open circles), in minimal M9 media (open squares), or in M9 media supplemented with 100 mM xylitol (closed circles). E, F and G. P. aeruginosa (E), S. aureus (F), and coagulase-negative Staphylococcus (G) were cultured in Lauria-Bertani media alone (open triangles), Lauria-Bertani media with 100 mM xylitol (closed circles), and Lauria-Bertani media containing tobramycin or levofloxacin (open circles).
# To test the effect of xylitol on growth of different airway pathogens in a carbon-starved media, P. aeruginosa, S. aureus, and coagulase-negative Staphylococcus were grown overnight in Lauria-Bertani medium. The bacteria were then centrifuged and resuspended in M9 media containing either 100 mM succinate, mannitol, or sucrose, respectively, and grown overnight at 37° C. […] The optical density (O.D.) was measured after 0, 1, 2, and 4 hours at 600 nm on a Beckman DU640 Spectrophotometer (Schaumburg, Ill.). […]
compound,measurement,setting,value
OC[C@@H](O)[C@H](O)[C@@H](O)CO [xylitol],effect on dental caries,[1],prevent dental caries
same,estimated ASL volume,non-CF epithelia; 24 hours after 5 μl apical,increased
same,ASL Cl- concentration,non-CF epithelia; 24 hours after 5 μl isosmotic xylitol solution apical,34.2 ± 4.3 mM
same,growth of S. aureus,S. aureus,failed to support growth
